Measured values taken from ChEMBL document CHEMBL6134908, “Inverse Agonists of Peroxisome Proliferator-Activated Receptor Gamma: Advances and Prospects in Cancer Treatment” (J Med Chem, 2025).

Key:
[1] = target: T1, Peroxisome proliferator-activated receptor gamma (Homo sapiens) (UniProt P37231); test: Inhibition of PPRAgamma in HEK293 cells assessed as […] in FABP4 mRNA expression at 100 nM relative to control; type: cell-based
T1 sequence (whole entry): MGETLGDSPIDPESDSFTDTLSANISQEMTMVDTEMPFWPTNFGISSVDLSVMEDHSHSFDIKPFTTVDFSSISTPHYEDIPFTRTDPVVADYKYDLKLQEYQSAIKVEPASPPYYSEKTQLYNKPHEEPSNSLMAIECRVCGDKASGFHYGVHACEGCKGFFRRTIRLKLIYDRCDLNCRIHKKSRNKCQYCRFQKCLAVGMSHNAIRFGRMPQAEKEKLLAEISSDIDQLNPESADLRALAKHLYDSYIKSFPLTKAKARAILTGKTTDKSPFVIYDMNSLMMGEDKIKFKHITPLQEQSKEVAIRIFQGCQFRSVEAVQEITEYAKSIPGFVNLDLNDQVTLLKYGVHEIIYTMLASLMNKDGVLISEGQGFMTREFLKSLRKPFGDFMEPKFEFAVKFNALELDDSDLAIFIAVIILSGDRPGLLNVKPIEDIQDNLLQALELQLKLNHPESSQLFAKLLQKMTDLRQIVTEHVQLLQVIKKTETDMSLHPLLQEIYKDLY

[2] = Induction of ANGPTL4 mRNA expression in human HT1197 cells

| inhibition [1] [%] | Compound | EC50 [2] [nM] |
| --- | --- | --- |
| 95 | N#Cc1ccc(Cl)c(-c2cc(=O)c3c(F)cc(F)cc3[nH]2)c1 |  |
|  | N#Cc1cc(-c2cc(=O)c3c(F)cc(F)cc3[nH]2)c(Cl)cn1 | 0.14 |
